{"source": "patent US20260250290A1", "about": "(BRISTOL-MYERS SQUIBB COMPANY, priority 2023, published 2026)", "data": [{"target": "T1, full length SGK1 (Homo sapiens, UniProt O00141)", "T1 construct": "125 μM full length SGK1 (Life Technologies Part #PR7358A); purchased Life Technologies PR7358A", "T1 sequence (O00141 1-431)": "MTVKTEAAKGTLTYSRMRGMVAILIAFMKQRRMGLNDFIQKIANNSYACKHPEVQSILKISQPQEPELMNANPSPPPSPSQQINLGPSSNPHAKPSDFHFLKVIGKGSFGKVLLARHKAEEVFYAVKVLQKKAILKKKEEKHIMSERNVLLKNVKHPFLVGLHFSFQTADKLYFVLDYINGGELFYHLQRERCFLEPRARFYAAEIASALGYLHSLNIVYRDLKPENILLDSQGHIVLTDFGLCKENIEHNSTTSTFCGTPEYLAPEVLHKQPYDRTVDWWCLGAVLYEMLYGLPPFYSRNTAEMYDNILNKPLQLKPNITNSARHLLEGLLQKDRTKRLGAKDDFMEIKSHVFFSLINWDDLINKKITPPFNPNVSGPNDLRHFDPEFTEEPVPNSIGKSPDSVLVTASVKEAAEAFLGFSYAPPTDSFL", "assay": "SGK1 inhibition Assay A (Caliper LabChip electrophoretic separation of fluorescent peptide substrate and phosphorylated product)", "format": "biochemical", "conditions": "Assay A; 20 μM ATP, 40 min incubation; read-out: SGK1 IC50", "units": {"IC50": "nM"}, "values": [{"smiles": "CC1(C)CC1C(=O)N1CC=C(c2cc(N3CCC[C@@H](NC(=O)c4sc(Cl)cc4OCCN4CCOCC4)C3)c3c(N)ncnn23)C1", "note": "(stereo partly drawn) [Example 261, N-((3R)-1-(4-amino-7-(1-(2,2-dimethylcyclopropane-1-carbonyl)-2,5-dihydro-1H-pyrrol-3-yl)pyrrolo[2,1-f] [1,2,4]triazin-5-yl)piperidin-3-yl)-5-chloro-3-(2-morpholinocthoxy)thiophene-2-carboxamide]", "IC50": 32}, {"smiles": "Nc1ncnn2c(C3=CCN(C(=O)C4(F)CC4)C3)cc(N3CCC[C@@H](NC(=O)c4sc(Cl)cc4OCCN4CCOCC4)C3)c12", "note": "[Example 263, (R)-N-(1-(4-amino-7-(1-(1-fluorocyclopropane-1-carbonyl)-2,5-dihydro-1H-pyrrol-3-yl)pyrrolo [2,1-f][1,2,4]triazin-5-yl)piperidin-3-yl)-5-chloro-3-(2-morpholinoethoxy)thiopbene-2-carboxamide]", "IC50": 12}, {"smiles": "N#CC1(C(=O)N2CC=C(c3cc(N4CCC[C@@H](NC(=O)c5sc(Cl)cc5OCCN5CCOCC5)C4)c4c(N)ncnn34)C2)CC1", "note": "[Example 264, (R)-N-(1-(4-amino-7-(1-(1-cyanocyclopropane-1-carbonyl)-2,5-dihydro-1H-pyrrol-3-yl)pyrrolo[2,1-f][1,2,4]triazin-5-yl)piperidin-3-yl)-5-chloro-3-(2-morpholinoethoxy)thiophene-2-carboxamide]", "IC50": 12}, {"smiles": "Nc1ncnn2c(C3=CCN(C(=O)C4CC45CC5)C3)cc(N3CCC[C@@H](NC(=O)c4sc(Cl)cc4OCCN4CCOCC4)C3)c12", "note": "(stereo partly drawn) [Example 265, N-((3R)-1-(4-amino-7-(1-(spiro[2.2]pentane-1-carbonyl)-2,5-dihydro-1H-pyrrol-3-yl)pyrrolo[2,1-f][1,2,4]triazin-5-yl)piperidin-3-yl)-5-chloro-3-(2-morpholinoethoxy)thiophene-2-carboxamide]", "IC50": 18}, {"smiles": "CC1CC1C(=O)N1CC=C(c2cc(N3CCC[C@@H](NC(=O)c4sc(Cl)cc4OCCN4CCOCC4)C3)c3c(N)ncnn23)C1", "note": "(stereo partly drawn) [Example 266, N-((3R)-1-(4-amino-7-(1-(2-methylcyclopropane-1-carbonyl)-2,5-dihydro-1H-pyrrol-3-yl)pyrrolo[2,1-f][1,2,4]triazin-5-yl)piperidin-3-yl)-5-chloro-3-(2-morpholinoethoxy)thiopbene-2-carboxamide]", "IC50": 18}, {"smiles": "Nc1ncnn2c(-c3ccnc(C(F)(F)F)c3)cc(N3CCC[C@@H](NC(=O)c4sc(Cl)cc4OCCN4CCOCC4)C3)c12", "note": "[Example 267, (R)—N-(1-(4-amino-7-(2-(trifluoromethyl)pyridin-4-yl)pyrrolo[2,1-f][1,2,4]triazin-5-yl)piperidin-3-yl)-5-chloro-3-(2-morpholinoethoxy)thiophene-2-carboxamide]", "IC50": 9}, {"smiles": "CC(=O)N1CC=C(c2cc(N3CCC[C@@H](NC(=O)c4sc(C)cc4N4CCOCC4)C3)c3c(N)ncnn23)C1", "note": "[Example 268, (R)—N-(1-(7-(1-acetyl-2,5-dihydro-1H-pyrrol-3-yl)-4-aminopyrrolo[2,1-f][1,2,4]triazin-5-yl)piperidin-3-yl)-5-methyl-3-morpholinothiophene-2-carboxamide]", "IC50": 38}, {"smiles": "CC(=O)N1CC=C(c2cc(N3CCC[C@@H](NC(=O)c4sc(C)cc4N4CCN(C)CC4)C3)c3c(N)ncnn23)C1", "note": "[Example 269, (R)—N-(1-(7-(1-acetyl-2,5-dihydro-1H-pyrrol-3-yl)-4-aminopyrrolo[2,1-f][1,2,4]triazin-5-yl)piperidin-3-yl)-5-methyl-3-(4-methylpiperazin-1-yl)thiophene-2-carboxamide]", "IC50": 31}, {"smiles": "CC(=O)N1CC=C(c2cc(N3CCC[C@@H](NC(=O)c4cc(N5CCN(C)CC5)c(C)s4)C3)c3c(N)ncnn23)C1", "note": "[Example 270, (R)—N-(1-(7-(1-acetyl-2,5-dihydro-1H-pyrrol-3-yl)-4-aminopyrrolo[2,1-f][1,2,4]triazin-5-yl)piperidin-3-yl)-5-methyl-4-(4-methylpiperazin-1-yl)thiophene-2-carboxamide]", "IC50": 49}, {"smiles": "CC(=O)N1CC=C(c2cc(N3CCC[C@@H](NC(=O)c4cc(N5CCOCC5)c(C)s4)C3)c3c(N)ncnn23)C1", "note": "[Example 271, (R)—N-(1-(7-(1-acetyl-2,5-dihydro-1H-pyrrol-3-yl)-4-aminopyrrolo[2,1-f][1,2,4]triazin-5-yl)piperidin-3-yl)-5-methyl-4-morpholinothiophene-2-carboxamide]", "IC50": 22}, {"smiles": "CC(=O)N1CC=C(c2cc(N3CCC[C@@H](NC(=O)c4cc(N5CCOCC5)cs4)C3)c3c(N)ncnn23)C1", "note": "[Example 272, (R)—N-(1-(7-(1-acetyl-2,5-dihydro-1H-pyrrol-3-yl)-4-aminopyrrolo[2,1-f][1,2,4]triazin-5-yl)piperidin-3-yl)-4-morpholinothiophene-2-carboxamide]", "IC50": 28}, {"smiles": "CN1CCN(CCOc2cc(Cl)sc2C(=O)N[C@@H]2CCCN(c3cc(C4=CCN(S(C)(=O)=O)C4)n4ncnc(N)c34)C2)CC1", "note": "[Example 273, (R)—N-(1-(4-amino-7-(1-(methylsulfonyl)-2,5-dihydro-1H-pyrrol-3-yl)pyrrolo[2,1-f][1,2,4]triazin-5-yl)piperidin-3-yl)-5-chloro-3-(2-(4-methylpiperazin-1-yl)ethoxy)thiophene-2-carboxamide]", "IC50": 5}, {"smiles": "CS(=O)(=O)c1ccc(-c2cc(N3CCC[C@@H](NS(=O)(=O)c4ccccc4)C3)c3c(N)ncnn23)cc1", "note": "[Example 274, (R)—N-(1-(4-amino-7-(4-(methylsulfonyl)phenyl)pyrrolo[2,1-f][1,2,4]triazin-5-yl)piperidin-3-yl)benzenesulfonamide]", "IC50": 916}, {"smiles": "CN(C)CCOc1cc(Cl)sc1C(=O)N[C@@H]1CCCN(c2cc(-c3cnn(C4CCOC4)c3)n3ncnc(N)c23)C1", "note": "(stereo partly drawn) [Example 275, N-((3R)-1-(4-amino-7-(1-(tetrahydrofuran-3-yl)-1H-pyrazol-4-yl)pyrrolo[2,1-f][1,2,4]triazin-5-yl)piperidin-3-yl)-5-chloro-3-(2-(dimethylamino)ethoxy)thiophene-2-carboxamide]", "IC50": 919}, {"smiles": "CN(C)CCOc1cc(Cl)sc1C(=O)N[C@@H]1CCCN(c2cc(-c3ccc(C=O)cc3)n3ncnc(N)c23)C1", "note": "[Example 276, (R)—N-(1-(4-amino-7-(4-formylphenyl)pyrrolo[2,1-f][1,2,4]triazin-5-yl)piperidin-3-yl)-5-chloro-3-(2-(dimethylamino)ethoxy)thiophene-2-carboxamide]", "IC50": 1}, {"smiles": "Cc1cc(-c2cc(N3CCC[C@@H](NC(=O)c4sc(Cl)cc4OCCN(C)C)C3)c3c(N)ncnn23)cc(C(F)F)n1", "note": "[Example 277, (R)-N-(1-(4-amino-7-(2-(difluoromethyl)-6-methylpyridin-4-yl)pyrrolo[2,1-f][1,2,4]triazin-5-yl)piperidin-3-yl)-5-chloro-3-(2-(dimethylamino)ethoxy) thiophene-2-carboxamide]", "IC50": 10}, {"smiles": "CN(C)CCOc1cc(Cl)sc1C(=O)N[C@@H]1CCCN(c2cc(-c3ccc(C#N)nc3)n3ncnc(N)c23)C1", "note": "[Example 278, (R)-N-(1-(4-amino-7-(6-cyanopyridin-3-yl)pyrrolo[2,1-f][1,2,4]triazin-5-yl)piperidin-3-yl)-5-chloro-3-(2-(dimethylamino)ethoxy) thiophene-2-carboxamide]", "IC50": 1}, {"smiles": "CN(C)CCOc1cc(Cl)sc1C(=O)N[C@@H]1CCCN(c2cc(-c3ccc(C#N)c(F)c3)n3ncnc(N)c23)C1", "note": "[Example 279, (R)-N-(1-(4-amino-7-(4-cyano-3-fluorophenyl)pyrrolo[2,1-f][1,2,4]triazin-5-yl)piperidin-3-yl)-5-chloro-3-(2-(dimethylamino)ethoxy) thiophene-2-carboxamide]", "IC50": 3}, {"smiles": "CN(C)CCOc1cc(Cl)sc1C(=O)N[C@@H]1CCCN(c2cc(-c3ccnc(C#N)c3)n3ncnc(N)c23)C1", "note": "[Example 280, (R)-N-(1-(4-amino-7-(2-cyanopyridin-4-yl)pyrrolo[2,1-f][1,2,4]triazin-5-yl)piperidin-3-yl)-5-chloro-3-(2-(dimethylamino)ethoxy) thiophene-2-carboxamide]", "IC50": 2}, {"smiles": "CN(C)CCOc1cc(Cl)sc1C(=O)N[C@@H]1CCCN(c2cc(-c3ccc(=O)n(CC(F)F)c3)n3ncnc(N)c23)C1", "note": "[Example 281, (R)-N-(1-(4-amino-7-(1-(2,2-difluoroethyl)-6-oxo-1,6-dihydropyridin-3-yl)pyrrolo[2,1-f][1,2,4]triazin-5-yl)piperidin-3-yl)-5-chloro-3-(2-(dimethylamino)ethoxy) thiophene-2-carboxamide]", "IC50": 4}, {"smiles": "CN(C)CCOc1cc(Cl)sc1C(=O)N[C@@H]1CCCN(c2cc(-c3cccc(C=O)c3)n3ncnc(N)c23)C1", "note": "[Example 283, (R)-N-(1-(4-amino-7-(3-formylphenyl)pyrrolo[2,1-f][1,2,4]triazin-5-yl)piperidin-3-yl)-5-chloro-3-(2-(dimethylamino)ethoxy) thiophene-2-carboxamide]", "IC50": 6}, {"smiles": "COC(=O)N1CC=C(c2cc(N3CCC[C@@H](NC(=O)c4sc(Cl)cc4OCCN4CCC(F)(F)CC4)C3)c3c(N)ncnn23)C1", "note": "[Example 284, methyl (R)-3-(4-amino-5-(3-(5-chloro-3-(2-(4,4-difluoropiperidin-1-yl)ethoxy)thiophene-2-carboxamido)piperidin-1-yl)pyrrolo[2,1-f][1,2,4]triazin-7-yl)-2,5-dihydro-1H-pyrrole-1-carboxylate]", "IC50": 18}]}]}
